Measured values published in the OligoGym collection.
Values joined by “and” are separate entries in the source; they are usually repeats but may differ in a detail not shown here. Identical values can stand only once. After the bases stand the sugars from the 5' end (letter, count) and the backbone: PS all phosphorothioate, else s phosphorothioate and o phosphodiester by linkage. Methylation of C is not given here. e = 2'-O-(2-methoxyethyl) (MOE); k = constrained ethyl (cEt); d = 2'-deoxy (DNA)

Target: APOL1
Conditions: ASO

Question: Which target mRNA inhibition (A431, 2 µM) does the source give for “CGCAATGCTGACTTGG (sugars kkddddkdkdkddddd, PS)” here?
Answer: The target mRNA inhibition was 94%.

Question: How did the target mRNA inhibition (A431, 2 µM) turn out when “TAATTCTATTAGAGGG (sugars kkkddddkekekdddd, PS)” was run?
Answer: The target mRNA inhibition was 41%.

Question: “TTTGTAAGTGCAACCA (sugars kkddddkekekkdddd, PS)” was tested. Which target mRNA inhibition (A431, 2 µM) did it give?
Answer: Its target mRNA inhibition is 87%.

Question: How did the target mRNA inhibition (A431, 2 µM) turn out when “TCAGATGGGTACTTCT (sugars k2 d4 e3 k2 d5, PS)” was run?
Answer: Its target mRNA inhibition is 88%.

Question: For “CAGTTTTGTAAGTGCA (sugars kddddkekekeddddd, PS)”, which target mRNA inhibition (A431, 2 µM) is on record?
Answer: Its target mRNA inhibition is 48%.

Question: “GTGTTATATTTGATCC (sugars kkkddddkekekdddd, PS)” was tested. Which target mRNA inhibition (A431, 2 µM) did it give?
Answer: Its target mRNA inhibition is 75%.

Question: “TTTGTAAGTGCAACCA (sugars kkkddddkekeddddd, PS)” was tested. Which target mRNA inhibition (A431, 2 µM) did it give?
Answer: The target mRNA inhibition was 49%.

Question: Which target mRNA inhibition (A431, 2 µM) does the source give for “GCAATGCTGACTTGGC (sugars kddddkekekeddddd, PS)” here?
Answer: Its target mRNA inhibition is 45%.

Question: With “GTATTTCTTGATGTGG (sugars kkddddkekekkdddd, PS)” as the sequence, how does the target mRNA inhibition (A431, 2 µM) read?
Answer: The target mRNA inhibition was 52%.

Question: For “GCTAATTTTCTGACTG (sugars kkddddekekeddddd, PS)”, which target mRNA inhibition (A431, 2 µM) is on record?
Answer: Its target mRNA inhibition is 88%.

Question: Which target mRNA inhibition (A431, 2 µM) does the source give for “GAACGCAATGCTGACT (sugars kkkddddkekekdddd, PS)” here?
Answer: Its target mRNA inhibition is 48%.

Question: How did the target mRNA inhibition (A431, 0.0156 µM) turn out when “TGGTTCAAAAGCAGCA (sugars k2 d4 e3 k2 d5, PS)” was run?
Answer: The target mRNA inhibition was 41%.

Question: What about the target mRNA inhibition (A431, 0.0625 µM) of the same sequence?
Answer: Its target mRNA inhibition is 68%.

Question: And the target mRNA inhibition (A431, 0.25 µM)?
Answer: Its target mRNA inhibition is 85%.

Question: And the target mRNA inhibition (A431, 1 µM)?
Answer: The target mRNA inhibition was 91%.

Question: What about the target mRNA inhibition (A431, 2 µM) of the same sequence?
Answer: Its target mRNA inhibition is 93%.

Question: For “CAGTTTTGTAAGTGCA (sugars k2 d4 e3 k2 d5, PS)”, which target mRNA inhibition (A431, 2 µM) is on record?
Answer: Its target mRNA inhibition is 92%.

Question: How did the target mRNA inhibition (A431, 0.0156 µM) turn out when “ATTCTCATGGTACAGG (sugars kkdddddkekeddddd, PS)” was run?
Answer: The target mRNA inhibition was 18%.

Question: What about the target mRNA inhibition (A431, 0.0625 µM) of the same sequence?
Answer: The target mRNA inhibition was 46%.

Question: And the target mRNA inhibition (A431, 0.25 µM)?
Answer: Its target mRNA inhibition is 74%.

Question: And the target mRNA inhibition (A431, 1 µM)?
Answer: Its target mRNA inhibition is 90%.

Question: And the target mRNA inhibition (A431, 2 µM)?
Answer: Its target mRNA inhibition is 95%.

Question: How did the target mRNA inhibition (A431, 0.0156 µM) turn out when “GTGTATTTCTTGATGT (sugars kkddddekekeddddd, PS)” was run?
Answer: Its target mRNA inhibition is 36%.

Question: What about the target mRNA inhibition (A431, 0.0625 µM) of the same sequence?
Answer: Its target mRNA inhibition is 65%.

Question: And the target mRNA inhibition (A431, 0.25 µM)?
Answer: The target mRNA inhibition was 83%.

Question: What about the target mRNA inhibition (A431, 1 µM) of the same sequence?
Answer: The target mRNA inhibition was 92%.

Question: And the target mRNA inhibition (A431, 2 µM)?
Answer: The target mRNA inhibition was 94%.

Question: Which target mRNA inhibition (A431, 2 µM) does the source give for “ATTCAGAATTTCCACT (sugars kkkddddkekekdddd, PS)” here?
Answer: Its target mRNA inhibition is 56%.

Question: “GCTTTAAACTCAGGTG (sugars kkddddkekekddddd, PS)” was tested. Which target mRNA inhibition (A431, 2 µM) did it give?
Answer: Its target mRNA inhibition is 86%.

Question: How did the target mRNA inhibition (A431, 0.0156 µM) turn out when ATTCTATTAGAGGGCT (sugars k4 d9 k3, PS) was run?
Answer: Its target mRNA inhibition is 31%.

Question: What about the target mRNA inhibition (A431, 0.0625 µM) of the same sequence?
Answer: The target mRNA inhibition was 54% and 53% and 55%.

Question: And the target mRNA inhibition (A431, 0.25 µM)?
Answer: The target mRNA inhibition was 82% and 76% and 86%.

Question: How did the target mRNA inhibition (A431, 2 µM) turn out when “GCTTTAAACTCAGGTG (sugars kdddddkekekddddd, PS)” was run?
Answer: The target mRNA inhibition was 92%.

Question: “AATTCTATTAGAGGGC (sugars kkddddekekeddddd, PS)” was tested. Which target mRNA inhibition (A431, 2 µM) did it give?
Answer: The target mRNA inhibition was 79%.

Question: With “GCAATGCTGACTTGGC (sugars kdddddkekekddddd, PS)” as the sequence, how does the target mRNA inhibition (A431, 2 µM) read?
Answer: The target mRNA inhibition was 85%.

Question: For “AAGCTTTAAACTCAGG (sugars kkddddkekekddddd, PS)”, which target mRNA inhibition (A431, 2 µM) is on record?
Answer: Its target mRNA inhibition is 48%.

Question: How did the target mRNA inhibition (A431, 0.0625 µM) turn out when TGGGCGAGCGATTGTC (sugars k4 d9 k3, PS) was run?
Answer: The target mRNA inhibition was 42%.

Question: And the target mRNA inhibition (A431, 0.25 µM)?
Answer: Its target mRNA inhibition is 70%.

Question: What about the target mRNA inhibition (A431, 1 µM) of the same sequence?
Answer: The target mRNA inhibition was 83%.

Question: How did the target mRNA inhibition (A431, 0.0625 µM) turn out when ACTCCTTATGTTTTGA (sugars k4 d9 k3, PS) was run?
Answer: Its target mRNA inhibition is 46%.

Question: What about the target mRNA inhibition (A431, 0.25 µM) of the same sequence?
Answer: The target mRNA inhibition was 75%.

Question: And the target mRNA inhibition (A431, 1 µM)?
Answer: Its target mRNA inhibition is 91%.

Question: How did the target mRNA inhibition (A431, 2 µM) turn out when “TTTATACCAGTGTCTT (sugars kkddddekekeddddd, PS)” was run?
Answer: The target mRNA inhibition was 90%.

Question: “GTTCTAACTCTTGGGC (sugars kkdddddkekeddddd, PS)” was tested. Which target mRNA inhibition (A431, 2 µM) did it give?
Answer: The target mRNA inhibition was 84%.

Question: How did the target mRNA inhibition (A431, 2 µM) turn out when “CAACACATCATTGGGT (sugars kkddddkekekddddd, PS)” was run?
Answer: The target mRNA inhibition was 43%.

Question: For TGTGCTCAGCTATGGA (sugars k4 d9 k3, PS), which target mRNA inhibition (A431, 0.0625 µM) is on record?
Answer: The target mRNA inhibition was 41% and 55%.

Question: What about the target mRNA inhibition (A431, 0.25 µM) of the same sequence?
Answer: The target mRNA inhibition was 70% and 74%.

Question: What about the target mRNA inhibition (A431, 1 µM) of the same sequence?
Answer: The target mRNA inhibition was 88% and 87%.

Question: Which results are given for ATTCCTGGGCAGTTCA (sugars k4 d9 k3, PS)?
Answer: target mRNA inhibition (A431, 0.0625 µM): 37%; target mRNA inhibition (A431, 0.25 µM): 43%; target mRNA inhibition (A431, 1 µM): 58%

Question: How did the target mRNA inhibition (A431, 2 µM) turn out when “TTATGAAATTATTGGT (sugars kkdddddkekeddddd, PS)” was run?
Answer: The target mRNA inhibition was 63%.

Question: Which results are given for GTTTCATATTCACCCG (sugars k4 d9 k3, PS)?
Answer: target mRNA inhibition (A431, 0.0625 µM): 82%; target mRNA inhibition (A431, 0.25 µM): 92%; target mRNA inhibition (A431, 1 µM): 97%

Question: “GGAATTATGGAATTGC (sugars kkkddddkekeddddd, PS)” was tested. Which target mRNA inhibition (A431, 2 µM) did it give?
Answer: Its target mRNA inhibition is 55%.

Question: With “AAGATTGGCTCTGGCT (sugars kkddddekekeddddd, PS)” as the sequence, how does the target mRNA inhibition (A431, 2 µM) read?
Answer: The target mRNA inhibition was 66%.

Question: TCCTTGCTGCACTGCC (sugars k4 d9 k3, PS) was tested. Which target mRNA inhibition (A431, 0.0625 µM) did it give?
Answer: Its target mRNA inhibition is 67%.

Question: And the target mRNA inhibition (A431, 0.25 µM)?
Answer: Its target mRNA inhibition is 88%.

Question: And the target mRNA inhibition (A431, 1 µM)?
Answer: Its target mRNA inhibition is 95%.
